What was measured:
Assay type in all cases: in vivo
[1] = system: umbrella sedge (Cyperus difformis); test: Test B flooded paddy test plant response
Procedure, shortened: (§1)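 Compounds were added directly to paddy water over 2-leaf-stage plants in pots flooded 3 cm above soil, water depth maintained. Visual injury scored against controls after 13 to 15 days in greenhouse, 0 (none) to 100 (complete control); dash indicates no result.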

[2] = system: ducksalad (Heteranthera limosa); test: Test B flooded paddy test plant response
Procedure, shortened: as §1

rice (Oryza sativa) = test: Test B flooded paddy test plant response
Procedure, shortened: as §1

[3] = system: winter barley (Hordeum vulgare); test: Test C pre-/postemergence plant response; details: Postemergence, scale 0 to 100, 0 no effect, 100 complete control
Procedure, shortened: (§2)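 Pre/post spray; solvent blend non-phytotoxic, with surfactant; post stage 1–4 leaves (2–18 cm); controlled environment 15–25 d; visual score 0–100 relative to controls, 100 = complete control.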

wild oat (Avena fatua) = test: Test C pre-/postemergence plant response; details: Postemergence, scale 0 to 100, 0 no effect, 100 complete control
Procedure, shortened: as §2

[4] = system: pigweed (Amaranthus retroflexus); test: Test C pre-/postemergence plant response; details: Postemergence, scale 0 to 100, 0 no effect, 100 complete control
Procedure, shortened: as §2

[5] = system: annual bluegrass (Poa annua); test: Test C pre-/postemergence plant response; details: Postemergence, scale 0 to 100, 0 no effect, 100 complete control
Procedure, shortened: as §2

[6] = system: winter wheat (Triticum aestivum); test: Test C pre-/postemergence plant response; details: Postemergence, scale 0 to 100, 0 no effect, 100 complete control
Procedure, shortened: as §2

[7] = system: spring wheat (Triticum aestivum); test: Test C pre-/postemergence plant response; details: Postemergence, scale 0 to 100, 0 no effect, 100 complete control
Procedure, shortened: as §2

[8] = system: wild mustard (Sinapis arvensis); test: Test C pre-/postemergence plant response; details: Postemergence, scale 0 to 100, 0 no effect, 100 complete control
Procedure, shortened: as §2

[9] = system: spring barley (Hordeum vulgare); test: Test C pre-/postemergence plant response; details: Postemergence, scale 0 to 100, 0 no effect, 100 complete control
Procedure, shortened: as §2

[10] = system: downy bromegrass (Bromus tectorum); test: Test C pre-/postemergence plant response; details: Postemergence, scale 0 to 100, 0 no effect, 100 complete control
Procedure, shortened: as §2

[11] = system: blackgrass (Alopecurus myosuroides); test: Test C pre-/postemergence plant response; details: Postemergence, scale 0 to 100, 0 no effect, 100 complete control
Procedure, shortened: as §2

[12] = system: canarygrass (Phalaris minor); test: Test C pre-/postemergence plant response; details: Postemergence, scale 0 to 100, 0 no effect, 100 complete control
Procedure, shortened: as §2

[13] = system: windgrass (Apera spica-venti); test: Test C pre-/postemergence plant response; details: Postemergence, scale 0 to 100, 0 no effect, 100 complete control
Procedure, shortened: as §2

[14] = system: green foxtail (Setaria viridis); test: Test C pre-/postemergence plant response; details: Postemergence, scale 0 to 100, 0 no effect, 100 complete control
Procedure, shortened: as §2

[15] = system: Italian ryegrass (Lolium multiflorum); test: Test C pre-/postemergence plant response; details: Postemergence, scale 0 to 100, 0 no effect, 100 complete control
Procedure, shortened: as §2

[16] = Flood (flooded paddy test), 62 g ai/ha, scale 0 to 100, 0 no effect, 100 complete control
[17] = Flood (flooded paddy test), 125 g ai/ha, scale 0 to 100, 0 no effect, 100 complete control
[18] = Flood (flooded paddy test), 250 g ai/ha, scale 0 to 100, 0 no effect, 100 complete control
[19] = Flood, 31 g ai/ha, scale 0 to 100

Compound: CCc1cc(-c2ccc(Cl)c(Cl)c2)nn1-c1c(O)cnn(C)c1=O [Compound 20]
- Plant response rating, Sedge, Umbrella [1, 16]: 0
- Plant response rating, Sedge, Umbrella [1, 17]: 0
- Plant response rating, Sedge, Umbrella [1, 18]: 0
- Plant response rating, Sedge, Umbrella [1, 19]: 0
- Plant response rating, Ducksalad [2, 16]: 0
- Plant response rating, Ducksalad [2, 17]: 0
- Plant response rating, Ducksalad [2, 18]: 0
- Plant response rating, Ducksalad [2, 19]: 0
- Plant response rating, Rice (rice (Oryza sativa); [16]): 0
- Plant response rating, Rice (rice (Oryza sativa); [17]): 0
- Plant response rating, Rice (rice (Oryza sativa); [18]): 0
- Plant response rating, Rice (rice (Oryza sativa); [19]): 0
- Plant response rating, Barley, Winter ([3]; 8 g ai/ha): 0
- Plant response rating, Barley, Winter ([3]; 16 g ai/ha): 0
- Plant response rating, Barley, Winter ([3]; 31 g ai/ha): 20
- Plant response rating, Barley, Winter ([3]; 62 g ai/ha): 20
- Plant response rating, Oat, Wild (wild oat (Avena fatua); 8 g ai/ha): 10
- Plant response rating, Oat, Wild (wild oat (Avena fatua); 16 g ai/ha): 98
- Plant response rating, Oat, Wild (wild oat (Avena fatua); 31 g ai/ha): 100
- Plant response rating, Oat, Wild (wild oat (Avena fatua); 62 g ai/ha): 100
- Plant response rating, Pigweed ([4]; 8 g ai/ha): 0
- Plant response rating, Pigweed ([4]; 16 g ai/ha): 0
- Plant response rating, Pigweed ([4]; 31 g ai/ha): 0
- Plant response rating, Pigweed ([4]; 62 g ai/ha): 0
- Plant response rating, Bluegrass ([5]; 8 g ai/ha): 0
- Plant response rating, Bluegrass ([5]; 16 g ai/ha): 0
- Plant response rating, Bluegrass ([5]; 31 g ai/ha): 0
- Plant response rating, Bluegrass ([5]; 62 g ai/ha): 0
- Plant response rating, Wheat, Winter ([6]; 8 g ai/ha): 0
- Plant response rating, Wheat, Winter ([6]; 16 g ai/ha): 20
- Plant response rating, Wheat, Winter ([6]; 31 g ai/ha): 30
- Plant response rating, Wheat, Winter ([6]; 62 g ai/ha): 60
- Plant response rating, Wheat, Spring ([7]; 8 g ai/ha): 0
- Plant response rating, Wheat, Spring ([7]; 16 g ai/ha): 25
- Plant response rating, Wheat, Spring ([7]; 31 g ai/ha): 25
- Plant response rating, Wheat, Spring ([7]; 62 g ai/ha): 60
- Plant response rating, Mustard, Wild ([8]; 8 g ai/ha): 0
- Plant response rating, Mustard, Wild ([8]; 16 g ai/ha): 0
- Plant response rating, Mustard, Wild ([8]; 31 g ai/ha): 0
- Plant response rating, Mustard, Wild ([8]; 62 g ai/ha): 0
- Plant response rating, Barley, Spring ([9]; 8 g ai/ha): 0
- Plant response rating, Barley, Spring ([9]; 16 g ai/ha): 25
- Plant response rating, Barley, Spring ([9]; 31 g ai/ha): 25
- Plant response rating, Barley, Spring ([9]; 62 g ai/ha): 50
- Plant response rating, Bromegrass, Downy ([10]; 8 g ai/ha): 0
- Plant response rating, Bromegrass, Downy ([10]; 16 g ai/ha): 0
- Plant response rating, Bromegrass, Downy ([10]; 31 g ai/ha): 0
- Plant response rating, Bromegrass, Downy ([10]; 62 g ai/ha): 10
- Plant response rating, Blackgrass ([11]; 8 g ai/ha): 0
- Plant response rating, Blackgrass ([11]; 16 g ai/ha): 35
- Plant response rating, Blackgrass ([11]; 31 g ai/ha): 60
- Plant response rating, Blackgrass ([11]; 62 g ai/ha): 75
- Plant response rating, Canarygrass ([12]; 8 g ai/ha): 10
- Plant response rating, Canarygrass ([12]; 16 g ai/ha): 35
- Plant response rating, Canarygrass ([12]; 31 g ai/ha): 75
- Plant response rating, Canarygrass ([12]; 62 g ai/ha): 95
- Plant response rating, Windgrass ([13]; 8 g ai/ha): 0
- Plant response rating, Windgrass ([13]; 16 g ai/ha): 0
- Plant response rating, Windgrass ([13]; 31 g ai/ha): 50
- Plant response rating, Windgrass ([13]; 62 g ai/ha): 75
- Plant response rating, Foxtail, Green ([14]; 8 g ai/ha): 0
- Plant response rating, Foxtail, Green ([14]; 16 g ai/ha): 70
- Plant response rating, Foxtail, Green ([14]; 31 g ai/ha): 80
- Plant response rating, Foxtail, Green ([14]; 62 g ai/ha): 98
- Plant response rating, Ryegrass, Italian ([15]; 8 g ai/ha): 65
- Plant response rating, Ryegrass, Italian ([15]; 16 g ai/ha): 80
- Plant response rating, Ryegrass, Italian ([15]; 31 g ai/ha): 95
- Plant response rating, Ryegrass, Italian ([15]; 62 g ai/ha): 98

From patent US20100267561A1, “HERBICIDAL PYRIDAZINONE DERIVATIVES” (priority 2007, published 2010)
